The text below walks through data of publication PMC9503112, “Synthesis, Molecular Docking, In Vitro and In Vivo Studies of Novel Dimorpholinoquinazoline-Based Potential Inhibitors of PI3K/Akt/mTOR Pathway” (International Journal of Molecular Sciences, 2022).

One may read the IC50 as the concentration that inhibits the measured activity by half.

For series [1], the system named is PARP1 in MCF7 cells. Kind of series: Immunoblotting of PARP1 cleavage. In kind it is cell-based, human. The protocol: MCF7 cells were seeded onto 100 mm dishes (Corning) and cultivated for 24 h. Compound 7c was added at different concentrations while the reference compound wortmannin (Selleckchem, Houston, TX, USA) was used at 500 nM. The cells were harvested after 72 h of growth with the compounds. To prepare cell extracts, MCF7 cells were twice washed in phosphate buffer and incubated for 10 min on ice in the modified lysis buffer containing 50 mM Tris-HCl, pH 7.5, 0.5% Igepal CA-630, 150 mM NaCl, 1 mM EDTA, 1 mM DTT, 1 mM PMSF, 0.1 mM sodium orthovanadate and aprotinin, leupeptin, pepstatin (1 µg/mL each). The protein content was determined by the Bradford method. Cell lysates were separated in 10% SDS-PAGE under reducing conditions, transferred to a nitrocellulose membrane (GE HealthCare, Chicago, IL, USA), and processed according to a standard protocol. To prevent nonspecific absorption, the membranes were treated with 5% nonfat milk solution in TBS buffer (20 mM Tris, 500 mM NaCl, pH 7.5) with 0.1% Tween-20 and then incubated with primary antibodies (Cell Signaling Technology, Danvers, MA, USA) overnight at 4 °C. […] Signals were detected using the ECL reagent using the ImageQuant LAS4000 system (GE HealthCare, Chicago, IL, USA).
The signals of phospho-proteins to total ones were calculated using the ImageJ program from inverted images of the bands.

Series [2] deals with SkBr-3 cells. Nature of the series: Cell cycle analysis (PI-stained DNA, flow cytometry). In kind it is cell-based, human. Here is the method:
The cell cycle was analyzed using PI-stained DNA. Cells from the compounds 7 treated cultures were collected at 24, 48, and 72 h, trypsinized, washed in ice-cold PBS, fixed by the addition of 70% ethanol and left for 2 h at −20 °C. Thereafter, the cells were washed twice in PBS, stained with 50 μg/mL of propidium iodide (Sigma, Merck KGaA, Darmstadt, Germany) in PBS, treated with 10 µg/mL of RNAse and analyzed by flow cytometry using FACScan device (BD, USA). A total of 2000 events were collected. The results were analyzed using FlowJo 10 software (BD, Franklin Lakes, NJ, USA).

Series [3] concerns keratinocytes HaCaT. Nature of the series: Antiproliferative activity, MTT assay. In kind it is cell-based. The settings on record: Homo sapiens, 72 h, standard deviations within 50%. Here is the method: (§1) Human breast cancer MCF7, MDA-MB-231, SkBr-3 (purchased from the ATCC collection), human keratinocytes HaCaT, murine fibroblasts L929 and macrophages J774 cells (Collection of Shemyakin-Ovchinnikov Institute of Bioorganic Chemistry RAS) were cultured in standard DMEM or RPMI-1640 medium (ThermoScientific, Waltham, MA, USA) supplemented with 10% fetal bovine serum (FBS, Cytiva, Marlborough, MA, USA) at 37 °C, 5 % CO2 and 80–85% humidity (NuAir CO2 incubator). The cell growth was evaluated by MTT (3-[4,5-dimethylthiazol-2-yl]-2,5-diphenyltetrazolium bromide) test. Cells were seeded at a density of 5 × 10^3 cells per well in 96-well flat-bottomed plates (TPP). The compounds were dissolved in DMSO (AppliChem) to 10 mM before the experiments, and then the resulting solutions were diluted by the medium to the required concentrations. Solutions of the tested compounds with different concentrations in 100 μL of the medium were added and the cells were grown for 72 h. MTT (10 μL/well, 5 mg/mL) was added for the final 3 h. The formazan purple crystals were dissolved in DMSO (100 μL per well). The absorbance of solutions was measured at 540 nm with a MultiScan reader (ThermoFisher). Results were analyzed by Excel package (Microsoft). The inhibition of proliferation (inhibitory index) was calculated as [1–(ODexperiment/ODcontrol)], where OD was MTT optical density. IC50 (Table 1) was determined as the concentration giving 50% of inhibition in the comparison with it […].
For orientation: Tetrazolium assays rely on reduction of a dye to a coloured formazan, in cell work by metabolically active cells.

The subject of series [4] is MCF7. Nature of the series: Antiproliferative activity, MTT assay. In kind it is cell-based. The settings on record: Homo sapiens, 72 h, standard deviations within 50%. Here is the method: as §1
A short description of series [5]: Solubility. It counts as physicochemical.
Series [6] concerns macrophages J774. Nature of the series: Antiproliferative activity, MTT assay. In kind it is cell-based, murine. The settings on record: Mus musculus, 72 h, standard deviations within 50%. The protocol: as §1
Series [7] deals with fibroblasts L929. Nature of the series: Antiproliferative activity, MTT assay. In kind it is cell-based, murine. The settings on record: Mus musculus, 72 h, standard deviations within 50%. Here is the method: as §1
In series [8] the target is T1, recombinant PI3K (p110α/p85α) (Homo sapiens, UniProt P42336).
T1 construct: purchased Millipore 14-602
T1 sequence (P42336 whole entry): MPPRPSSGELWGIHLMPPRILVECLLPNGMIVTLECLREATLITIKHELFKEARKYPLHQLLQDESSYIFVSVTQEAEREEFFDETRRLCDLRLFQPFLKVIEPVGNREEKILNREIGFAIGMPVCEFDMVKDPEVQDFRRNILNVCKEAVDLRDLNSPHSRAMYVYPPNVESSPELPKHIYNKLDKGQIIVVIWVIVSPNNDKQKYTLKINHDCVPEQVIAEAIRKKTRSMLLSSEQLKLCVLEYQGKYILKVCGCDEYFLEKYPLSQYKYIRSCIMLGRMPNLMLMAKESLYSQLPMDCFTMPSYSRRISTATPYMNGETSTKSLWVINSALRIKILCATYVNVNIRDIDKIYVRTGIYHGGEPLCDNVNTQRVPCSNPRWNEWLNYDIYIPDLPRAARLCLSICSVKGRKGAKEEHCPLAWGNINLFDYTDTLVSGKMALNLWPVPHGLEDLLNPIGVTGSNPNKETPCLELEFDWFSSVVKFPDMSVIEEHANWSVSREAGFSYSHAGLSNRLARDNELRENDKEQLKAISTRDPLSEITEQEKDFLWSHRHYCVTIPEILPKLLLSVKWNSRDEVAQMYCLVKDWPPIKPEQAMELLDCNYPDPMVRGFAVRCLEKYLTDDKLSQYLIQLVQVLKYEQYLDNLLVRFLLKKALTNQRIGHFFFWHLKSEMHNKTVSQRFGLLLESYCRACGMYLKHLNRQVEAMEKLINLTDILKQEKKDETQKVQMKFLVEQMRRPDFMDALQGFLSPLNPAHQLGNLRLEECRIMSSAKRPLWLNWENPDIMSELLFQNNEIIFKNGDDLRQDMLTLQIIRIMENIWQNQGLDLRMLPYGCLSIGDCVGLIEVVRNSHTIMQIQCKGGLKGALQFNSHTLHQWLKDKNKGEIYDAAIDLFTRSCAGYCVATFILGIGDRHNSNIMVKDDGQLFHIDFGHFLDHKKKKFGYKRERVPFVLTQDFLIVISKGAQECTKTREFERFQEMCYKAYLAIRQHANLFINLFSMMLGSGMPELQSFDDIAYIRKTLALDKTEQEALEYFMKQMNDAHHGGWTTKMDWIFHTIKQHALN
T1 sequence (P27986 whole entry partner): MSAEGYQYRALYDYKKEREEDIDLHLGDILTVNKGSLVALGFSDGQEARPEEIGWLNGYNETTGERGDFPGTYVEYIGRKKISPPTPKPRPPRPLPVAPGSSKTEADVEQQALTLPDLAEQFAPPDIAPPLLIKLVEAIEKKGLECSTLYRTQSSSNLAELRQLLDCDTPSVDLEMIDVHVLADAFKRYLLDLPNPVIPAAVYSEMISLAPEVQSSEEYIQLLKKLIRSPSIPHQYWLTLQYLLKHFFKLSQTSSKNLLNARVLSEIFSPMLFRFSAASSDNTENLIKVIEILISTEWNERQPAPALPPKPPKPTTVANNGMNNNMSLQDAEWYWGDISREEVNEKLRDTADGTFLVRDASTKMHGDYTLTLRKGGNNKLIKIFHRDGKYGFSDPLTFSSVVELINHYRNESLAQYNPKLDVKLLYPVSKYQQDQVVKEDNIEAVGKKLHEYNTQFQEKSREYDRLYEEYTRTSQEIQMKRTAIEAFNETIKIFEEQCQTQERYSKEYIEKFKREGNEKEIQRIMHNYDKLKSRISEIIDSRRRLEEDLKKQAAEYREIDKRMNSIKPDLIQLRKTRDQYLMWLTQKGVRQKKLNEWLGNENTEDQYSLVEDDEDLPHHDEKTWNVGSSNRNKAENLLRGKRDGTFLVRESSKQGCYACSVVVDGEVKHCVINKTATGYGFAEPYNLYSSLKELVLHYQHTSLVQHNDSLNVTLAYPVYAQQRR
Kind of series: PI3K inhibition assay (HTRF). It counts as biochemical. The settings on record: FRET/HTRF detection; approximate; read-out: IC50 PI3Kα. The protocol:
The PI 3-Kinase (Class I) HTRF Assay Kit (Cat# 33-016 from Millipore) was used to determine the activity of recombinant PI3K (p110α/p85α) human (Cat# 14-602 from Millipore). The kit was supplemented with ATP (Cat# A26209 from Sigma-Aldrich, St. Louis, MI, USA), DL-dithiothreitol (Cat# S-[…]-1 from Sigma-Aldrich), and Wortmannin inhibitor (Cat# 12-338 from Millipore, Burlington, MA, USA). The latter was used at 0.1 μM concentration. For measurements, a Victor ×5 plate reader (PerkinElmer, 2030, Waltham, MA, USA) was used in TRF mode with excitation at 340 nm. Fluorescence emission was recorded at 613 and 670 nm in a 384-well plate (Cat# S-CLS3658 from Sigma-Aldrich) at a time interval of 150-350 μs. The enzymatic reaction and the determination of its products were carried out according to the recommendations of the reagent kit manufacturer (Millipore) in two wells for each sample. In calculations, readings in parallel wells were averaged. The calculations were made according to the recommendations of the equipment manufacturer.
For orientation: Time-resolved FRET reads energy transfer from a long-lived donor to a nearby acceptor.

As for `O=C(NCCc1cccnc1)Nc1ccc(-c2ccc3c(N4CCOCC4)nc(N4CCOCC4)nc3c2)cc1` [Compound 7c, 1-(4-(2,4-Dimorpholinoquinazolin-7-yl)phenyl)-3-(2-(pyridin-3-yl)ethyl)urea], in series [1], the “Concentration triggering PARP-1 cleavage” value was in the range of 62 to 125 nM. For the same molecule, the “Concentration above which all cells died” value in series [2] is “higher than 10 μM”. In series [2], the “Concentration below which no changes in the cell cycle were found” value is recorded as “below 1 μM”. For the same molecule, the half-inhibitory concentration (IC50) is 6 µM in series [3]; 200 nM in series [4]; 400 nM in series [6]; 3000 nM in series [7]; approximately 500 µM in series [8]. Moreover, the Solubility entry in series [5] was “soluble only in DMSO”.
